Common to all, as to test: microbe, parasite or virus in culture
What all share (type): cell-based

For one assay, the system named is La Crosse virus (LACV). To be noted: La Crosse virus, Vero, read-out: Avg Activity (LACV).
For another assay, the system named is vaccinia virus. The conditions noted are these: Orthopoxvirus vaccinia, read-out: Avg Activity (VV).
Another assay concerns Chlamydophila caviae. To be noted: Chlamydia caviae, Vero, read-out: Avg Activity (C. Caviae).

Structures can show the parent of a compound that is named as a salt. Some results are limits rather than exact numbers.

As for `COc1cc(NC(=S)NC(=O)C2CCCCC2)ccc1NC(=O)c1ccccc1Cl` [Compound 26, 2-chloro-N-[4-(cyclohexanecarbonyl-carbamothioylamino)-2-methoxy-phenyl]benzamide], the EC50 in the assay with La Crosse virus (LACV) was above 25 µM; in the assay with vaccinia virus, 1 to 10 µM; with Chlamydophila caviae it was 10 to 25 µM.

For `COc1cc(NC(=S)NC(=O)c2ccc(C(C)(C)C)cc2)ccc1NC(=O)c1cccc(CN)c1` [Compound 27, 3-(aminomethyl)-N-[4-[(4-tert-butylbenzoyl)-carbamothioylamino]-2-methoxy-phenyl]benzamide hydrochloride], the EC50 is above 25 µM in the assay on La Crosse virus (LACV), 1 to 10 µM in the assay on vaccinia virus and below 1 µM in the assay with Chlamydophila caviae.

Turning to `COc1cc(NC(=S)NC(=O)c2ccc(C(C)(C)C)cc2)ccc1NC(=O)c1ccccc1N` [Compound 28, 2-amino-N-[4-[(4-tert-butylbenzoyl)-carbamothioylamino]-2-methoxy-phenyl]benzamide], the figures for the EC50 with La Crosse virus (LACV), with vaccinia virus and with Chlamydophila caviae were above 25 µM, 1 to 10 µM and below 1 µM, respectively.

For the molecule `COc1cc(NC(=S)NC(=O)c2ccc(C(C)(C)C)cc2)ccc1NC(=O)c1ccc(N)cc1` [Compound 32, N-[[4-[(4-aminobenzoyl)amino]-3-methoxy-phenyl]-carbamothioyl]-4-tert-butyl-benzamide hydrochloride], the EC50 with La Crosse virus (LACV) was 10 to 25 µM; with vaccinia virus it was 10 to 25 µM; with Chlamydophila caviae it was below 1 µM.

With `CCNC(=S)Nc1ccc(NC(=O)c2ccccc2Cl)c(OC)c1` [Compound 33, 2-chloro-N-[4-(ethylcarbamo-thioylamino)-2-methoxy-phenyl]benzamide], the figures for the EC50 in the assay with La Crosse virus (LACV), with vaccinia virus and with Chlamydophila caviae were above 25 µM, 10 to 25 µM and above 25 µM, respectively.

For `CCN(C(=S)NC(=O)c1ccc(C(C)(C)C)cc1)c1ccc(NC(=O)c2ccccc2Cl)c(OC)c1` [Compound 34, N-[4-[(4-tert-butylbenzoyl)-carbamothioyl-ethyl-amino]-2-methoxy-phenyl]-2-chloro-benzamide], the EC50 was above 25 µM with La Crosse virus (LACV), 10 to 25 µM in the assay with vaccinia virus and 1 to 10 µM in the assay on Chlamydophila caviae.

With `COC(=O)CC(=O)Nc1ccc(NC(=S)NC(=O)c2ccc(C(C)(C)C)cc2)cc1OC` [Compound 35, methyl 3-[4-[(4-tert-butylbenzoyl)carbamo-thioylamino]-2-methoxy-anilino]-3-oxo-propanoate], the EC50 was above 25 µM in the assay on La Crosse virus (LACV), 10 to 25 µM with vaccinia virus and 1 to 10 µM in the assay with Chlamydophila caviae.

Turning to `CC(C)(C)c1ccc(C(=O)NC(=S)Nc2ccc(Nc3cccnc3)cc2)cc1` [Compound 36, 4-tert-butyl-N-[[4-(3-pyridylamino)phenyl]-carbamothioyl]benzamide hydrochloride], the EC50 with La Crosse virus (LACV) was above 25 µM; in the assay on vaccinia virus, 10 to 25 µM; with Chlamydophila caviae it was below 1 µM.

Take `CC(C)(C)c1ccc(C(=O)NC(=S)Nc2ccc(Nc3ccncc3)cc2)cc1` [Compound 38, 4-tert-butyl-N-[[4-(4-pyridylamino)phenyl]-carbamothioyl]benzamide hydrochloride]: the values for the EC50 in the assay with La Crosse virus (LACV), in the assay with vaccinia virus and with Chlamydophila caviae were 1 to 10 µM, above 25 µM and above 25 µM, respectively.

In the case of `Cc1ccc(C(=O)NC(=S)Nc2ccc(NC(=O)c3ccc(C(C)(C)C)cc3)cc2)cc1` [Compound 41, N-[[4-[(4-tert-butylbenzoyl)amino]phenyl]carbamothioyl]-4-methyl-benzamide], the EC50 in the assay on La Crosse virus (LACV), in the assay on vaccinia virus and in the assay with Chlamydophila caviae was below 1 µM in each case.

`Cc1ccccc1NC(=S)NC(=O)c1ccc(C(C)(C)C)cc1` [Compound 42, 4-tert-butyl-N-(o-tolylcarbamothioyl)-benzamide]: the EC50 with La Crosse virus (LACV), in the assay with vaccinia virus and in the assay on Chlamydophila caviae was below 1 µM in each case.

Take `CC(C)(C)c1ccc(C(=O)NC(=S)Nc2ccc(NC(=O)c3ccccc3)cc2)cc1` [Compound 43, N-[(4-benzamidophenyl)-carbamothioyl]-4-tert-butyl-benzamide]: the EC50 in the assay with La Crosse virus (LACV), in the assay with vaccinia virus and in the assay with Chlamydophila caviae was below 1 µM in each case.

As for `CC(C)(C)c1ccc(C(=O)NC(=S)Nc2cc(C(F)(F)F)ccc2Cl)cc1` [Compound 44, 4-tert-butyl-N-[[2-chloro-5-(trifluoromethyl)phenyl]-carbamothioyl]benzamide], the EC50 in the assay with La Crosse virus (LACV), with vaccinia virus and in the assay on Chlamydophila caviae was below 1 µM throughout.

With `CC(C)(C)c1ccc(C(=O)NC(=S)Nc2cc(C(C)(C)C)ccc2O)cc1` [Compound 46, 4-tert-butyl-N-[(5-tert-butyl-2-hydroxy-phenyl)-carbamothioyl]benzamide], the EC50 in the assay on La Crosse virus (LACV) is 1 to 10 µM; with vaccinia virus, below 1 µM; in the assay on Chlamydophila caviae, below 1 µM.

`Cc1c(Cl)cccc1NC(=S)NC(=O)c1ccc(C(C)(C)C)cc1` [Compound 47, 4-tert-butyl-N-[(3-chloro-2-methyl-phenyl)-carbamothioyl]benzamide]: the EC50 in the assay on La Crosse virus (LACV) was below 1 µM; in the assay on vaccinia virus, 1 to 10 µM; with Chlamydophila caviae, below 1 µM.

As to `CC(C)(C)c1ccc(C(=O)NC(=S)Nc2cc(Cl)ccc2Cl)cc1` [Compound 50, 4-tert-butyl-N-[(2,5-dichlorophenyl)-carbamothioyl]benzamide], the EC50 in the assay with La Crosse virus (LACV) is 1 to 10 µM; with vaccinia virus, 1 to 10 µM; in the assay on Chlamydophila caviae, below 1 µM.

On to `COc1ccccc1NC(=S)NC(=O)c1ccc(C(C)(C)C)cc1` [Compound 51, 4-tert-butyl-N-[(2-methoxyphenyl)-carbamothioyl]benzamide], for which the EC50 with La Crosse virus (LACV) is 1 to 10 µM; in the assay on vaccinia virus, 1 to 10 µM; in the assay on Chlamydophila caviae, below 1 µM.

Regarding `CC(C)(C)c1ccc(C(=O)NC(=S)Nc2cccc(Cl)c2)cc1` [Compound 52, 4-tert-butyl-N-[(3-chlorophenyl)-carbamothioyl]benzamide], the EC50 was 1 to 10 µM in the assay on La Crosse virus (LACV), 1 to 10 µM in the assay on vaccinia virus and below 1 µM with Chlamydophila caviae.

Regarding `CC(C)(C)c1ccc(C(=O)NC(=S)Nc2ccccc2)cc1` [Compound 53, 4-tert-butyl-N-(phenylcarbamothioyl)-benzamide], the figures for the EC50 in the assay with La Crosse virus (LACV), with vaccinia virus and in the assay with Chlamydophila caviae were 1 to 10 µM, 1 to 10 µM and below 1 µM, respectively.

Consider `Cc1cccc(NC(=S)NC(=O)c2ccc(C(C)(C)C)cc2)c1C` [Compound 54, 4-tert-butyl-N-[(2,3-dimethylphenyl)-carbamothioyl]benzamide], for which the results for the EC50 with La Crosse virus (LACV), in the assay on vaccinia virus and in the assay with Chlamydophila caviae were 1 to 10 µM, 1 to 10 µM and below 1 µM, respectively.

Consider `Cc1ccc(NC(=S)NC(=O)c2ccc(C(C)(C)C)cc2)cc1C` [Compound 55, 4-tert-butyl-N-[(3,4-dimethylphenyl)-carbamothioyl]benzamide], for which the EC50 in the assay with La Crosse virus (LACV) was 1 to 10 µM; in the assay on vaccinia virus it was 1 to 10 µM; with Chlamydophila caviae, below 1 µM.

As to `CCOc1ccccc1NC(=S)NC(=O)c1ccc(C(C)(C)C)cc1` [Compound 56, 4-tert-butyl-N-[(2-ethoxyphenyl)-carbamothioyl]benzamide], the EC50 with La Crosse virus (LACV) was 1 to 10 µM; in the assay with vaccinia virus, 1 to 10 µM; in the assay on Chlamydophila caviae, below 1 µM.

For the molecule `CC(C)C(=O)Nc1cccc(NC(=S)NC(=O)c2ccc(C(C)(C)C)cc2)c1` [Compound 57, 4-tert-butyl-N-[[3-(2-methylpropanoylamino)-phenyl]carbamothioyl]-benzamide], the EC50 in the assay with La Crosse virus (LACV) is 1 to 10 µM; in the assay with vaccinia virus it was 1 to 10 µM; with Chlamydophila caviae, below 1 µM.

For the molecule `CC(C)(C)c1ccc(C(=O)NC(=S)Nc2ccccc2[N+](=O)[O-])cc1` [Compound 58, 4-tert-butyl-N-[(2-nitrophenyl)carbamothioyl]-benzamide], the EC50 in the assay on La Crosse virus (LACV) was 1 to 10 µM; in the assay with vaccinia virus, 1 to 10 µM; in the assay on Chlamydophila caviae it was below 1 µM.

For `Cc1ccc(NC(=S)NC(=O)c2ccc(C(C)(C)C)cc2)cc1` [Compound 59, 4-tert-butyl-N-(p-tolylcarbamothioyl)-benzamide], the EC50 with La Crosse virus (LACV) is 1 to 10 µM; with vaccinia virus, 1 to 10 µM; with Chlamydophila caviae, below 1 µM.

For the molecule `CC(C)(C)c1ccc(C(=O)NC(=S)Nc2ccc(N)cc2)cc1` [Compound 60, N-[(4-aminophenyl)-carbamothioyl]-4-tert-butyl-benzamide], the EC50 in the assay with La Crosse virus (LACV) was 1 to 10 µM; in the assay with vaccinia virus it was 1 to 10 µM; in the assay on Chlamydophila caviae, below 1 µM.

Regarding `CC(C)(C)c1ccc(C(=O)NC(=S)Nc2ccccc2F)cc1` [Compound 61, 4-tert-butyl-N-[(2-fluorophenyl)carbamothioyl]-benzamide], the EC50 in the assay with La Crosse virus (LACV), in the assay with vaccinia virus and in the assay with Chlamydophila caviae was 1 to 10 µM in each case.

With `CCC(=O)Nc1cccc(NC(=S)NC(=O)c2ccc(C(C)(C)C)cc2)c1` [Compound 62, 4-tert-butyl-N-[[3-(propanoylamino)phenyl]-carbamothioyl]benzamide], the EC50 with La Crosse virus (LACV), in the assay on vaccinia virus and in the assay on Chlamydophila caviae was 1 to 10 µM each time.

As for `Cc1cccc(NC(=S)NC(=O)c2ccc(C(C)(C)C)cc2)c1` [Compound 63, 4-tert-butyl-N-(m-tolylcarbamothioyl)-benzamide], the EC50 in the assay with La Crosse virus (LACV), in the assay with vaccinia virus and in the assay with Chlamydophila caviae was 1 to 10 µM throughout.

Turning to `CC(C)(C)c1ccc(C(=O)NC(=S)NC2CCCCC2)cc1` [Compound 64, 4-tert-butyl-N-(cyclohexyl-carbamothioyl)benzamide], the EC50 in the assay on La Crosse virus (LACV), in the assay on vaccinia virus and in the assay with Chlamydophila caviae was 1 to 10 µM throughout.

For the molecule `Cc1cc(C)cc(NC(=S)NC(=O)c2ccc(C(C)(C)C)cc2)c1` [Compound 65, 4-tert-butyl-N-[(3,5-dimethylphenyl)-carbamothioyl]benzamide], the EC50 in the assay on La Crosse virus (LACV), in the assay with vaccinia virus and with Chlamydophila caviae was 1 to 10 µM each time.

On to `COc1cccc(NC(=S)NC(=O)c2ccc(C(C)(C)C)cc2)c1` [Compound 66, 4-tert-butyl-N-[(3-methoxyphenyl)-carbamothioyl]benzamide], for which the EC50 was above 25 µM with La Crosse virus (LACV), 1 to 10 µM in the assay on vaccinia virus and below 1 µM with Chlamydophila caviae.

The values above are taken from US9566254B2, “Inhibitors and methods of inhibiting bacterial and viral pathogens” (priority 2010, dated 2017).
